# Results published in US20030220232A1, “Peptide and nucleic acid coding therefor for the detection, diagnosis and therapy of diseases of the nervous system” (priority 2000, published 2003).
# Experiments:
# [1] = tested on: sodium ion channels; assay: Neuroinhibitory assay: inhibition of sodium currents, whole cell mode, differentiated NH15-CA2 neuroblastoma-x-glioma cells; format: cell-based; settings: for concentration of solution with corresponding electrophysiological action on neuronal sodium channels: 10 μM peptide solution corresponds to 50 μM lidocaine solution
# Excerpt: “Neuroinhibitory activity” here means the capacity of a substance for blocking sodium ion channels. Neuroinhibitory activity can be measured in this connection by the inhibition of sodium ion currents through potential-dependent sodium ion channels. (Review article by Lehmann-Horn et al. in Rev. Physiol. Biochem. Pharmacol. 128; (1996), 198-268). The experimental conditions for measurement of the neuroinhibitory activity are described, for example, in Brinkmeier et al., Muscle and Nerve 19 (1996), 54-62. Neuroinhibitory activity can be determined using differentiated NH15-CA2 [neuroblastoma×glioma] cells (Hamprecht et al., Meth. Enzymol. 109 (1985), 316-41; Brinkmeier et al., Muscle Nerve 19 (1996), 54-62).
# The neuroinhibitory activity was determined by the inhibition of sodium ion channels using differentiated NH15-CA2 neuroblastoma-x-glioma cells. The culture conditions and morphological and physiological parameters of the differentiation of these cells are known (Hamprecht et al., Meth. Enzymol. 109 (1985), 316-41). For the assay, the cells were transferred into a hydrophobic test dish which was filled with standard external liquid (140 mM NaCl; 3.5 mM KCl; 1.0 mM CaCl2; 1.0 mM MgCl2; 2 mM HEPES, pH 7.4). The dish was on the platen of an inverted microscope for observation of the cells, while these were treated with pipettes which were filled with internal solution (140 mM CsCl; 1.4 mM MgCl2; 10 mM EGTA and 10 mM HEPES (peak resistances: […])). The sodium currents were induced and recorded in the whole cell mode. The determination of the maximum current amplitudes as a response to repetitive rectangular pulses from −85 to −20 mV lasting 8 ms before, during and after administration of the test solution can be used as a rapid test for the neuroinhibitory activity. The decrease in the current was recorded in three to five cells and the means were determined. An extended test consisted of determination of the “steady-state” activation and inactivation parameters of sodium ion channels. To determine the dependence of the activation on potential, a cyclic pulse program was used, which comprised pre-pulses which depolarized the cells from an HP (holding potential) of −85 mV to −135 mV over 100 ms, and subsequent variable test pulses which depolarized for 8 ms in 4 mV steps from −65 to +31 mV. For the dependence of the inactivation on potential, a similar program was used, which comprised a fixed 100 ms conditioning pulse at −135 mV, a variable 32 ms prepulse in the course of −135 to −19 mV in 4 mV steps and a constant test pulse which depolarized the cells to −20 mV. The size of the left shift of the h curve in the presence of test solutions was used as a measured of the inhibition of the sodium ion channels.
# The neuroinhibitory activity of the synthetic peptide with the sequence (SEQ ID NO:1) was determined by the inhibition of the sodium currents by ion channels which were induced by 1 Hz rectangular pulses from […]. […] In each case the mean with the standard deviation is shown.
# [2] = molecular target: sodium ion channels of differentiated NH15-CA2 neuroblastoma-x-glioma cells; assay: cell-based or functional assay
molecule,measurement,setting,value
"CCN(CC)CC(=O)Nc1c(C)cccc1C [lidocaine, reference compound]",concentration of solution with corresponding electrophysiological action on neuronal sodium channels,[1],50 μM
Gln-Tyr-Asn-Ala-Asp (QYNAD) [SEQ ID NO:1],concentration at saturation of the neuroinhibitory effect,[1],100 µM
same,neuroinhibitory activity compared with lidocaine,[1],significantly higher
same,neuroinhibitory activity in respect of sodium ion channels (in words),[1],blocks their sodium currents
same,concentration of solution with corresponding electrophysiological action on neuronal sodium channels,[1],10 μM
same,peptide-mediated blocking of the ion channel (time course),[1]; NH15-CA2 cells,rapid and reversible
same,IC50,"[1]; NH15-CA2 cells, currents induced by 1 Hz rectangular pulses, seven measurements, read-out: peptide concentration giving half-maximum inhibition of the sodium ion currents",< 10 µM
Gln-Tyr-Asn-Asp-Ala (QYNDA) [SEQ ID NO:2],neuroinhibitory activity in respect of sodium ion channels (in words),[1],does not have a neuroinhibitory activity
synthetic peptide Gln-Tyr-Asn-Ala-Asp (SEQ ID NO: 1),half-maximum inhibition of the sodium ion currents,[2],< 10 µM
same,saturation of the peptide effect,[2],100 µM
